Laboratory results taken from the supplement of paper PMC10307832.

What was measured:
Assay in all cases: relative viability (nuclei count vs DMSO), 5 days (fraction); higher = more cells survive
[1] = test system: NCI-H460
Method in brief: (§1)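 A single step with final 0.05% Triton X-100, 1% formaldehyde and 1 ug/ml Hoechst fixed the cells and stained nuclei 5 days after treatment. Lung cancer cell lines in 1536-well plates had been treated by pin tool the day after seeding with one drug alone or a fixed anchor-drug dose plus five library-drug doses (not always all listed) in √10 steps, and nuclei were counted on 4× images. Relative viability is the ratio of nuclei in treated wells to nuclei in vehicle wells, taken as the median of duplicate plates.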

[2] = test system: NCI-H2342
Method in brief: as §1

[3] = test system: EPLC-272H
Method in brief: as §1

[4] = test system: NCI-H2228
Method in brief: as §1

[5] = test system: NCI-H322M
Method in brief: as §1

[6] = test system: COR-L 105
Method in brief: as §1

[7] = test system: NCI-H2087
Method in brief: as §1

[8] = test system: ChaGo-K-1
Method in brief: as §1

[9] = test system: NCI-H2009
Method in brief: as §1

[10] = test system: NCI-H1993
Method in brief: as §1

[11] = test system: SK-MES-1
Method in brief: as §1

[12] = test system: NCI-H441
Method in brief: as §1

[13] = test system: NCI-H1975
Method in brief: as §1

[14] = test system: NCI-H1792
Method in brief: as §1

[15] = test system: H3255
Method in brief: as §1

[16] = test system: NCI-H2085
Method in brief: as §1

[17] = test system: CAL-12T
Method in brief: as §1

[18] = test system: HCC-366
Method in brief: as §1

[19] = test system: EKVX
Method in brief: as §1

[20] = test system: NCI-H1355
Method in brief: as §1

[21] = test system: HCC-827
Method in brief: as §1

CN1CCN(CCOc2cc(OC3CCOCC3)c3c(Nc4c(Cl)ccc5c4OCO5)ncnc3c2)CC1 [Saracatinib] + CC(=O)Nc1cccc(-n2c(=O)n(C3CC3)c(=O)c3c(Nc4ccc(I)cc4F)n(C)c(=O)c(C)c32)c1 [Trametinib] (partner 0.02 µM)
relative viability ([1]; first compound 0.02 µM): 0.215 | relative viability ([1]; first compound 0.2 µM): 0.139 | relative viability ([1]; first compound 0.6325 µM): 0.129 | relative viability ([1]; first compound 2 µM): 0.056 | relative viability ([2]; first compound 0.02 µM): 0.763 | relative viability ([2]; first compound 0.2 µM): 0.789 | relative viability ([2]; first compound 0.6325 µM): 0.944 | relative viability ([2]; first compound 2 µM): 0.817 | relative viability ([3]; first compound 0.02 µM): 0.289 | relative viability ([3]; first compound 0.2 µM): 0.368 | relative viability ([3]; first compound 0.6325 µM): 0.283 | relative viability ([3]; first compound 2 µM): 0.287 | relative viability ([4]; first compound 0.02 µM): 0.616 | relative viability ([4]; first compound 0.2 µM): 0.425 | relative viability ([4]; first compound 0.6325 µM): 0.703 | relative viability ([4]; first compound 2 µM): 0.465 | relative viability ([5]; first compound 0.02 µM): 0.529 | relative viability ([5]; first compound 0.2 µM): 0.449 | relative viability ([5]; first compound 0.6325 µM): 0.582 | relative viability ([5]; first compound 2 µM): 0.357 | relative viability ([6]; first compound 0.02 µM): 0.486 | relative viability ([6]; first compound 0.2 µM): 0.437 | relative viability ([6]; first compound 0.6325 µM): 0.37 | relative viability ([6]; first compound 2 µM): 0.317 | relative viability ([7]; first compound 0.02 µM): 0.24 | relative viability ([7]; first compound 0.2 µM): 0.142 | relative viability ([7]; first compound 0.6325 µM): 0.23 | relative viability ([7]; first compound 2 µM): 0.194 | relative viability ([8]; first compound 0.02 µM): 0.935 | relative viability ([8]; first compound 0.2 µM): 0.566 | relative viability ([8]; first compound 0.6325 µM): 0.906 | relative viability ([8]; first compound 2 µM): 0.84 | relative viability ([9]; first compound 0.02 µM): 0.274 | relative viability ([9]; first compound 0.2 µM): 0.207 | relative viability ([9]; first compound 0.6325 µM): 0.209 | relative viability ([9]; first compound 2 µM): 0.175 | relative viability ([10]; first compound 0.02 µM): 0.539 | relative viability ([10]; first compound 0.2 µM): 0.518 | relative viability ([10]; first compound 0.6325 µM): 0.528 | relative viability ([10]; first compound 2 µM): 0.5 | relative viability ([11]; first compound 0.02 µM): 0.548 | relative viability ([11]; first compound 0.2 µM): 0.6 | relative viability ([11]; first compound 0.6325 µM): 0.347 | relative viability ([11]; first compound 2 µM): 0.256 | relative viability ([12]; first compound 0.02 µM): 0.514 | relative viability ([12]; first compound 0.2 µM): 0.487 | relative viability ([12]; first compound 0.6325 µM): 0.507 | relative viability ([12]; first compound 2 µM): 0.339 | relative viability ([13]; first compound 0.02 µM): 0.37 | relative viability ([13]; first compound 0.2 µM): 0.412 | relative viability ([13]; first compound 0.6325 µM): 0.391 | relative viability ([13]; first compound 2 µM): 0.267 | relative viability ([14]; first compound 0.02 µM): 0.492 | relative viability ([14]; first compound 0.2 µM): 0.355 | relative viability ([14]; first compound 0.6325 µM): 0.382 | relative viability ([14]; first compound 2 µM): 0.3 | relative viability ([15]; first compound 0.02 µM): 0.636 | relative viability ([15]; first compound 0.2 µM): 0.665 | relative viability ([15]; first compound 0.6325 µM): 0.663 | relative viability ([15]; first compound 2 µM): 0.27 | relative viability ([16]; first compound 0.02 µM): 0.482 | relative viability ([16]; first compound 0.2 µM): 0.541 | relative viability ([16]; first compound 0.6325 µM): 0.497 | relative viability ([16]; first compound 2 µM): 0.404 | relative viability ([17]; first compound 0.02 µM): 0.394 | relative viability ([17]; first compound 0.2 µM): 0.373 | relative viability ([17]; first compound 0.6325 µM): 0.475 | relative viability ([17]; first compound 2 µM): 0.323 | relative viability ([18]; first compound 0.02 µM): 0.337 | relative viability ([18]; first compound 0.2 µM): 0.128 | relative viability ([18]; first compound 0.6325 µM): 0.216 | relative viability ([18]; first compound 2 µM): 0.202 | relative viability ([19]; first compound 0.02 µM): 0.274 | relative viability ([19]; first compound 0.6325 µM): 0.37 | relative viability ([19]; first compound 2 µM): 0.163 | relative viability ([20]; first compound 0.02 µM): 0.437 | relative viability ([20]; first compound 0.2 µM): 0.456 | relative viability ([20]; first compound 0.6325 µM): 0.439 | relative viability ([20]; first compound 2 µM): 0.441 | relative viability ([21]; first compound 0.02 µM): 0.542 | relative viability ([21]; first compound 0.2 µM): 0.306 | relative viability ([21]; first compound 0.6325 µM): 0.225 | relative viability ([21]; first compound 2 µM): 0.156
